Calls of active or inactive are those of the source. How the calls were made is not given here.

The test system of the series is CCRIS mutagenicity, Ames/micronucleus/aberration tests. The series can be described thus: CCRIS mutagenicity studies. As to conditions: Test System: AMES SALMONELLA TYPHIMURIUM
[1] abbreviates: Strain/Indicator: TA98, Metabolic Activation: NONE, Method: STANDARD PLATE.
The mark [2] stands for this setting: Strain/Indicator: TA100, Metabolic Activation: NONE, Method: STANDARD PLATE.
[3] abbreviates: Strain/Indicator: TA98, Metabolic Activation: NONE, Method: PREINCUBATION
The mark [4] stands for this setting: Strain/Indicator: TA100, Metabolic Activation: NONE, Method: PREINCUBATION

In the case of `C1COCCOCCOCCOCCOCCOCCO1`, the mutagenic call runs as follows: under setting [1], “inactive; negative”; (Strain/Indicator: TA98, Metabolic Activation: RAT, LIVER, S-9, AROCLOR 1254, Method: STANDARD PLATE) “inactive; negative”; under setting [2], “inactive; negative”; (Strain/Indicator: TA100, Metabolic Activation: RAT, LIVER, S-9, AROCLOR 1254, Method: STANDARD PLATE) “inactive; negative”; (Strain/Indicator: TA1530, Metabolic Activation: NONE, Method: STANDARD PLATE) “inactive; negative”; (Strain/Indicator: TA1530, Metabolic Activation: RAT, LIVER, S-9, AROCLOR 1254, Method: STANDARD PLATE) “inactive; negative”. The mutagenic call is, setting by setting: (Strain/Indicator: TA1537, Metabolic Activation: NONE, Method: STANDARD PLATE) “inactive; negative”; (Strain/Indicator: TA1537, Metabolic Activation: RAT, LIVER, S-9, AROCLOR 1254, Method: STANDARD PLATE) “inactive; negative”.
Take `C=C(C)C(=O)OCC(Br)CBr` (centres undefined): the mutagenic call (Strain/Indicator: TA98, Metabolic Activation: HAMSTER, LIVER, S-9, AROCLOR 1254 (10%), Method: PREINCUBATION) is “active; positive”; the mutagenic call under setting [3] is “inactive; negative”; the mutagenic call (Strain/Indicator: TA98, Metabolic Activation: RAT, LIVER, S-9, AROCLOR 1254 (10%), Method: PREINCUBATION) was “inactive; negative”; the mutagenic call (Strain/Indicator: TA100, Metabolic Activation: HAMSTER, LIVER, S-9, AROCLOR 1254 (10%), Method: PREINCUBATION) is “active; positive”; the mutagenic call under setting [4] was “inactive; negative”; the mutagenic call (Strain/Indicator: TA100, Metabolic Activation: RAT, LIVER, S-9, AROCLOR 1254 (10%), Method: PREINCUBATION) is “active; positive”. The mutagenic call by setting is: (Strain/Indicator: TA1535, Metabolic Activation: HAMSTER, LIVER, S-9, AROCLOR 1254 (10%), Method: PREINCUBATION) “active; positive”; (Strain/Indicator: TA1535, Metabolic Activation: NONE, Method: PREINCUBATION) “inactive; negative”; (Strain/Indicator: TA1535, Metabolic Activation: RAT, LIVER, S-9, AROCLOR 1254 (10%), Method: PREINCUBATION) “active; positive”; (Strain/Indicator: TA1537, Metabolic Activation: HAMSTER, LIVER, S-9, AROCLOR 1254 (10%), Method: PREINCUBATION) “inactive; negative”; (Strain/Indicator: TA1537, Metabolic Activation: NONE, Method: PREINCUBATION) “inactive; negative”; (Strain/Indicator: TA1537, Metabolic Activation: RAT, LIVER, S-9, AROCLOR 1254 (10%), Method: PREINCUBATION) “inactive; negative”.
Consider `CCOP(=S)(OCC)SCSCC`, for which the mutagenic call is “inactive; negative” (Strain/Indicator: TA97A, Metabolic Activation: NONE, Method: STANDARD PLATE); “inactive; negative” (Strain/Indicator: TA97A, Metabolic Activation: PLANT, HOMOGENATE, S-14, Method: STANDARD PLATE); “inactive; negative” (Strain/Indicator: TA97A, Metabolic Activation: S-9, Method: STANDARD PLATE); “inactive; negative” under setting [3]; “inactive; negative” under setting [1]; “inactive; negative” (Strain/Indicator: TA98, Metabolic Activation: PLANT, HOMOGENATE, S-14, Method: STANDARD PLATE). Besides, the mutagenic call reads like this: (Strain/Indicator: TA98, Metabolic Activation: S-9, Method: STANDARD PLATE) “inactive; negative”; under setting [4], “inactive; negative”; under setting [2], “inactive; negative”; (Strain/Indicator: TA100, Metabolic Activation: PLANT, HOMOGENATE, S-14, Method: STANDARD PLATE) “inactive; negative”; (Strain/Indicator: TA100, Metabolic Activation: S-9, Method: STANDARD PLATE) “inactive; negative”; (Strain/Indicator: TA1535, Metabolic Activation: NONE, Method: STANDARD PLATE) “inactive; negative”. For the same molecule, the mutagenic call reads like this: (Strain/Indicator: TA1535, Metabolic Activation: PLANT, HOMOGENATE, S-14, Method: STANDARD PLATE) “inactive; negative”; (Strain/Indicator: TA1535, Metabolic Activation: S-9, Method: STANDARD PLATE) “inactive; negative”.
Take `Oc1cccc2c1ccc1c3c4c(cccc4cc12)C=C3`: the mutagenic call is, setting by setting: under setting [1], “inactive; negative”; (Strain/Indicator: TA98, Metabolic Activation: RAT, LIVER, S-9, AROCLOR 1254 (0, 0.4, 0.8, 1.15 OR 1.5 MG/PLATE), Method: STANDARD PLATE) “active; positive”.
For `Cc1ccc([N+](=O)[O-])cc1C`, the mutagenic call is “inactive; negative” under setting [3]; “inactive; negative” (Strain/Indicator: TA98, Metabolic Activation: RAT, LIVER, S-9, KANECHLOR 500, Method: PREINCUBATION); “inactive; negative” under setting [4].
Consider `O=NN(c1ccc([N+](=O)[O-])cc1)C1OC[C@@H](O)[C@H](O)[C@H]1O` (some centres undefined), for which the mutagenic call under setting [2] is “active; positive”.
With `O=C(Nc1ccccc1Br)c1csc([N+](=O)[O-])c1`, the mutagenic call is “active; positive” under setting [1] and “active; positive” under setting [2].
`CC1=C(C)C2(C3=CC(=O)C=CC3=Nc3ccc(O)cc32)C(C)=C(C)C1=O`: the mutagenic call reads like this: (Strain/Indicator: TA1538, Metabolic Activation: NONE, Method: STANDARD PLATE) “inactive; negative”; (Strain/Indicator: TA1538, Metabolic Activation: RAT, LIVER, S-9, AROCLOR 1254, Method: STANDARD PLATE) “inactive; negative”.

The record behind these values is PubChem BioAssay AID1259407 (Chemical Carcinogenesis Research Information System (CCRIS), 2018).
